Test results: patent US12661308B2, “Antimicrobial AZO compounds and uses thereof” (The Regents Of The University Of Colorado, A Body Corporate, priority 2019, dated 2026)
“Also recorded” adds a separate entry of the source.

Key:
[1] = system: L929 mouse epithelial cells; test: Cytotoxicity study, MTT (Example 4); format: cell-based; settings: 50 mg/mL coated substrates
Protocol: Cytotoxicity studies were performed as described previously. Riss et al., Cell Viability Assays, (Promega). Briefly, L929 mouse epithelial cells were suspended in cell culture media (DMEM, 10% FBS, 1% penicillin streptomycin) to a final concentration of 1.06×10^5 cells/mL. 1 mL of the suspension was added to each well in a 24-well plate containing the substrates and allowed to grow to confluence. Cell growth was monitored via a phase contrast inverted microscope (Leica, WLD MPS32, Germany). Once confluent, the media was aspirated off, and 500 μL of a 1 mg/mL solution of MTT reagent in DMEM media was added to each well. The plate was incubated for 4 h, and 500 μL of 20% SDS in 50% DMF was added to each well containing the MTT reagent. The plate was incubated for an additional 24 h, then removed and analyzed by an absorbance reading at λ=570 nm (FIG. 10).

[2] = system: S. mutans (ATCC 25175) biofilm; test: S. mutans biofilm growth study by CFU count on coated and bulk substrates (Example 4); format: cell-based, Streptococcus mutans
Protocol: Coating formulations of OH-AAZO were prepared in THF, all others were prepared in DMF. The THF volume was kept constant (1 mL) and the mass of OH-AAZO monomer was varied to attain the desired concentration. In addition to the OH-AAZO monomer, the coating also consisted of AIBN (2 wt. % relative to the mass of the monomer), and Rhodamine B (0.2 wt. % relative to the mass of the monomer).
Once cured, the MMA:TEGDMA:PMMA base polymers were placed into a mount on a square glass microscope slide. 3 μL of the coating formulation was added via pipette to one side of the substrate and spin coated (1000 rpm for 1 min, 6000 rpm for 3 min), then the process was repeated on the other side. Once both sides were coated, they were placed in an oven for 3 h at 100° C., then under vacuum for an additional 0.5 h.
Bulk OH-AAZO formulations were prepared using the acrylic base polymer method with the addition of the appropriate weight percentage of OH-AAZO (relative to the total mass of the formulation) and AIBN (rather than camphorquinone/amine, 2 wt. %). The components were stirred at room temperature until completely dissolved. The formulations were pipetted into the rubber spacer and cured for 1 h at 100° C. Conversion rates were observed via FT-IR.
Following curing, residual monomer was aqueously extracted by autoclaving (20 psi, 128° C.) for 1 h in MilliQ water (approx. 5 mL water per substrate). The MilliQ water was replaced with fresh water (approx. 5 mL water per substrate) and placed in an 80° C. oven for 2 h. The substrates were blotted dry and analyzed via UV-Vis spectroscopy to confirm the relative amount of the coating (FIG. 9). All coated and bulk substrates were autoclaved prior to their use with both mammalian and bacterial cells.
S. mutans biofilms were grown from a 24 h BHI liquid culture inoculated with an isolated S. mutans colony. The liquid culture was diluted 1:50 in BHI media containing 1 wt. % sucrose in each well in a 96-well plate containing a substrate of interest. The plate was incubated in the dark at 37° C. and 5% CO2 for the necessary amount of time (t=24 h, 48 h, 72 h, depending on the experiment).
Following biofilm growth in the 96-well plate, the substrates were aseptically removed from the 96-well plate and placed in a vial containing 5 mL of 1× PBS solution. The vials were sonicated in a water bath for 10 min at 45° C., and the wells that previously contained the substrates were briefly sonicated using a probe sonicator (3 W RMS output) for 10 s per well. 200 μL aliquots of the sonicated PBS solution were placed in a 96-well plate and diluted 1:10 in each subsequent row. 20 μL aliquots of the sonicated media wells were placed in a 96-well plate containing 180 μL of PBS solution and diluted 1:10 in each subsequent row. Each column was then plated at a volume of 10 μL on a BHI agar plate in triplicate. The plates were then incubated at 37° C. and 5% CO2 for 48 h. The CFUs on each plate were counted in order to quantify the amount of biofilm remaining on the surface of the substrate and the bacteria remaining in the media after the removal of the substrate using the following equations: […]

[3] = system: S. pyogenes (Group A strep, GAS); test: Growth study, S. pyogenes (Group A strep); format: cell-based, Streptococcus pyogenes; settings: 50 mg/ML coated substrates, BHI media, 24 h time-period
Protocol: A single bacterial colony was inoculated in 4 mL BHI media. The colony was grown to mid-log phase (to approximately OD600=0.4), statically at 37° C., which for was approximately 4 hours for the S. agalactiae GBS, approximately 11 hours for the S. pyogenes GAS, and approximately 6 hours for the S. pneumaoniae. They were diluted 1:5 in 80% glycerol (in water) solution (4 parts culture, 1 part glycerol, for a final glycerol concentration of 16%). In a 96-well plate, each was diluted to 1:100 resulting in a final concentration of 1×10^6 CFU/mL and grown at 37° C. with 5% CO2.

S. mutans biofilm = S. mutans biofilm growth on coated pit and fissure dental sealants; format: cell-based, Streptococcus mutans; settings: coating on pit and fissure sealants
From the text: In some implementations, the azobenzene polymers can be used as an antimicrobial coating on pit and fissure dental sealants. […] Azobenzene coatings can be incorporated into pit and fissure sealants as an anti-bacterial coating to prevent tooth decay.

Structure (SMILES): C=CC(=O)Oc1ccccc1/N=N/c1ccccc1O [OH-AAZO, phenolic acrylated azobenzene]
- cytocompatibility [1]: cytocompatible
- CFUs of S. mutans biofilm on substrate ([2]; 5 mg/mL coating solution, 24 h): approximately 1.0×10^8 CFUs
- difference in CFUs between coated and uncoated substrates ([2]; 5 mg/mL coating solution, 24 h): no significant difference
- reduction in CFUs of S. mutans biofilm relative to the uncoated control ([2]; 25 mg/mL coating solution, 24 h): 4 log
- sterility of the substrate (sonication CFU) ([2]; 50 mg/mL coated substrates, over 72 h): maintained sterility
- bacterial growth in the media surrounding the substrate ([2]; 50 mg/mL coated substrates, t=48 h and 72 h): Some media bacterial growth was observed
- bacterial growth in the surrounding media ([2]; 50 mg/ml coated substrate, 24 h): absent
- CFUs of S. mutans biofilm on substrate surface ([2]; 100 mg/mL coating solution, 24 h): no observable CFUs
- bacterial growth in the surrounding media ([2]; 100 mg/ml coated substrate, 24 h): absent
- CFUs of S. mutans on surface and in surrounding media ([2]; 1.5 wt. % OH-AAZO bulk bisGMA:TEGDMA substrate, 24 h): no observable CFUs; also recorded: maintained sterility
- CFUs of S. mutans on surface and in surrounding media ([2]; 2 wt. % OH-AAZO bulk bisGMA:TEGDMA substrate, 24 h): no observable CFUs; also recorded: maintained sterility
- prevention of growth of an S. mutans biofilm ([2]; sucrose-dependent conditions): shown to prevent the growth
- S. pyogenes growth on coated substrate and in media [3]: did not grow on the coated substrate nor in the media
- S. mutans biofilm growth (S. mutans biofilm): absent
